Source: PubChem BioAssay AID1963828 (Molecular Pharmacology Branch, DTP, NCI, 2024)

Tested on: 991263-137-R1-J2-PDC complex spheroid viability
Experiment: Anticancer human tumor 991263-137-R1-J2-PDC patient-derived colon adenocarcinoma cell line growth inhibition [POLQ]
Conditions: for IC50: curve of first compound; for viability, T/C: stronger effect = lower value
Procedure, shortened: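 Patient-derived tumour cells were co-cultured with HUVEC and mesenchymal stem cells as multicellular spheroids at 37 °C. They were treated with POLQ inhibitors (novobiocin, ART-558, RP6685) alone or combined with other agents. Top concentrations were at or near clinical Cmax (otherwise 10 microM; SN-38 at 1 microM), decreasing in half-log steps.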

[1] = second compound 0.0316 µM, first compound 0.0316 µM
[2] = second compound 0.0316 µM, first compound 0.1 µM
[3] = second compound 0.0316 µM, first compound 0.316 µM
[4] = second compound 0.0316 µM, first compound 1 µM
[5] = second compound 0.0316 µM, first compound 3.16 µM
[6] = second compound 0.0316 µM, first compound 10 µM
[7] = second compound 0.1 µM, first compound 0.0316 µM
[8] = second compound 0.1 µM, first compound 0.1 µM
[9] = second compound 0.1 µM, first compound 0.316 µM
[10] = second compound 0.1 µM, first compound 1 µM
[11] = second compound 0.1 µM, first compound 3.16 µM
[12] = second compound 0.1 µM, first compound 10 µM
[13] = second compound 0.316 µM, first compound 0.0316 µM
[14] = second compound 0.316 µM, first compound 0.1 µM
[15] = second compound 0.316 µM, first compound 0.316 µM
[16] = second compound 0.316 µM, first compound 1 µM
[17] = second compound 0.316 µM, first compound 3.16 µM
[18] = second compound 0.316 µM, first compound 10 µM
[19] = second compound 1 µM, first compound 0.0316 µM
[20] = second compound 1 µM, first compound 0.1 µM
[21] = second compound 1 µM, first compound 0.316 µM
[22] = second compound 1 µM, first compound 1 µM
[23] = second compound 1 µM, first compound 3.16 µM
[24] = second compound 1 µM, first compound 10 µM
[25] = second compound 3.16 µM, first compound 0.0316 µM
[26] = second compound 3.16 µM, first compound 0.1 µM
[27] = second compound 3.16 µM, first compound 0.316 µM
[28] = second compound 3.16 µM, first compound 1 µM
[29] = second compound 3.16 µM, first compound 3.16 µM
[30] = second compound 3.16 µM, first compound 10 µM
[31] = second compound 10 µM, first compound 0.0316 µM
[32] = second compound 10 µM, first compound 0.1 µM
[33] = second compound 10 µM, first compound 0.316 µM
[34] = second compound 10 µM, first compound 1 µM
[35] = second compound 10 µM, first compound 3.16 µM
[36] = second compound 10 µM, first compound 10 µM
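Further: spheroids exposed to compounds for 7 days before readout.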
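Wherever viability, T/C is given: 100% = DMSO vehicle control viability.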

## O=c1[nH]cc(F)c(=O)[nH]1 + Cc1cccc(N(C)C(=O)C2C(O)CCN2c2nc(C)cc(C(F)(F)F)c2C#N)c1
Second compound 0.0316 µM
  IC50: > 10 µM
Second compound 0.1 µM
  IC50: > 10 µM
Second compound 0.316 µM
  IC50: > 10 µM
Second compound 1 µM
  IC50: > 10 µM
Second compound 3.16 µM
  IC50: > 10 µM
Second compound 10 µM
  IC50: > 10 µM
[1]
  viability, T/C: 102%
[2]
  viability, T/C: 116%
[3]
  viability, T/C: 94%
[4]
  viability, T/C: 75.6%
[5]
  viability, T/C: 74.8%
[6]
  viability, T/C: 84.3%
[7]
  viability, T/C: 107%
[8]
  viability, T/C: 90.7%
[9]
  viability, T/C: 79.6%
[10]
  viability, T/C: 93.4%
[11]
  viability, T/C: 85.8%
[12]
  viability, T/C: 82.3%
[13]
  viability, T/C: 124%
[14]
  viability, T/C: 101%
[15]
  viability, T/C: 93%
[16]
  viability, T/C: 83.3%
[17]
  viability, T/C: 77.2%
[18]
  viability, T/C: 80.9%
[19]
  viability, T/C: 110%
[20]
  viability, T/C: 108%
[21]
  viability, T/C: 97.3%
[22]
  viability, T/C: 90.8%
[23]
  viability, T/C: 85.4%
[24]
  viability, T/C: 76%
[25]
  viability, T/C: 108%
[26]
  viability, T/C: 94.8%
[27]
  viability, T/C: 102%
[28]
  viability, T/C: 90.2%
[29]
  viability, T/C: 82.5%
[30]
  viability, T/C: 62.2%
[31]
  viability, T/C: 115%
[32]
  viability, T/C: 95.4%
[33]
  viability, T/C: 94.1%
[34]
  viability, T/C: 70%
[35]
  viability, T/C: 85%
[36]
  viability, T/C: 69.6%

## COc1cccc2c1C(=O)c1c(O)c3c(c(O)c1C2=O)CC(O)(C(=O)CO)CC3OC1CC(N)C(O)C(C)O1 (centres undefined) + Cc1cccc(N(C)C(=O)C2C(O)CCN2c2nc(C)cc(C(F)(F)F)c2C#N)c1
Second compound 0.0316 µM
  IC50: 1.41 µM
Second compound 0.1 µM
  IC50: 1.85 µM
Second compound 0.316 µM
  IC50: 1.74 µM
Second compound 1 µM
  IC50: 0.976 µM
Second compound 3.16 µM
  IC50: 1.01 µM
Second compound 10 µM
  IC50: 0.79 µM
[1]
  viability, T/C: 90.1%
[2]
  viability, T/C: 99.4%
[3]
  viability, T/C: 79.1%
[4]
  viability, T/C: 55.9%
[5]
  viability, T/C: 38.5%
[6]
  viability, T/C: 35.3%
[7]
  viability, T/C: 105%
[8]
  viability, T/C: 91.9%
[9]
  viability, T/C: 92.2%
[10]
  viability, T/C: 56.7%
[11]
  viability, T/C: 46.2%
[12]
  viability, T/C: 33.8%
[13]
  viability, T/C: 114%
[14]
  viability, T/C: 99.4%
[15]
  viability, T/C: 94.8%
[16]
  viability, T/C: 57.2%
[17]
  viability, T/C: 41.7%
[18]
  viability, T/C: 34.1%
[19]
  viability, T/C: 92.8%
[20]
  viability, T/C: 95.4%
[21]
  viability, T/C: 102%
[22]
  viability, T/C: 48.9%
[23]
  viability, T/C: 44.3%
[24]
  viability, T/C: 27.6%
[25]
  viability, T/C: 99.6%
[26]
  viability, T/C: 107%
[27]
  viability, T/C: 74.2%
[28]
  viability, T/C: 51.8%
[29]
  viability, T/C: 36.4%
[30]
  viability, T/C: 26.9%
[31]
  viability, T/C: 97.1%
[32]
  viability, T/C: 78.3%
[33]
  viability, T/C: 68.9%
[34]
  viability, T/C: 40.8%
[35]
  viability, T/C: 33.7%
[36]
  viability, T/C: 15.7%
